Legend:
[1] = molecular target: T1, GST-ALK5 (TGF-beta receptor kinase) (Homo sapiens, UniProt P36897); experiment: In-vitro (enzyme) kinase flashplate assay: GST-ALK5 phosphorylation of GST-SMAD2 with 33P-ATP; assay type: biochemical; conditions: 384-well flashplate kinase assay, GST-ALK5 / GST-SMAD2, 33P-ATP, 30° C., 45 min; read-out: TβR activity (Example 50)
T1 sequence (P36897 34-503): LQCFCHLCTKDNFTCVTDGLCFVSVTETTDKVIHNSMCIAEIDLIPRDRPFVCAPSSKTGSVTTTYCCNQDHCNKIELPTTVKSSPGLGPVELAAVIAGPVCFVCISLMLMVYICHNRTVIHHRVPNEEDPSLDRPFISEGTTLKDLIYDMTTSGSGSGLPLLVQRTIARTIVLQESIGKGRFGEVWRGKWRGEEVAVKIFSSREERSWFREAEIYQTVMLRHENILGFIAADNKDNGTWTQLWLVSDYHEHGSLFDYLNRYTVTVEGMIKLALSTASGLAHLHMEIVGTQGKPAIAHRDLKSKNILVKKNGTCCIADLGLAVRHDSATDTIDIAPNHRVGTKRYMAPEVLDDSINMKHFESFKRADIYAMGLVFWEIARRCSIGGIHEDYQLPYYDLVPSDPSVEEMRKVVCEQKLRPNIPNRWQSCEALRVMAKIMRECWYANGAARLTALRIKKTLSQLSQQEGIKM
In short: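 Flashplate format: 31.2 nM GST-ALK5, 439 nM GST-SMAD2, 3 mM ATP with 33P-ATP in HEPES/MgCl2/MnCl2/DTT/BSA buffer, pH 7.4, 45 min at 30 °C, 5–10 compound concentrations. EDTA stop, saline washes, radioactivity counted. IC50 calculated from the counts.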

[2] = system: TGF-beta-induced phosphorylation of Smad2 (Ser465/467) and Smad3 (Ser423/425) in Mv1-Lu cells; experiment: Inhibition of Smad2/3 phosphorylation in Mv1Lu cells (PathScan Phospho-Smad2 ELISA); assay type: cell-based, mink Mustela vison; conditions: Neogale vison, Mv1-Lu cells, TGF-beta 1 5 ng/ml, Phospho-Smad2/3 ELISA, read-out: TβR activity (Example 51)
In short: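 Serum-starved mink Mv1-Lu lung epithelial cells were pretreated with compound for 1.5 h, then stimulated 1 h with 5 ng/ml TGF-beta 1 (0.2% DMSO). Phospho-Smad2/3 in lysates was quantified by ELISA against stimulated and unstimulated controls. IC50 was taken from dose-response fits.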

SMILES	IC50 [1] [nM]	IC50 [2] [nM]
Fc1ccccc1-c1cc(-c2ccnc3cnccc23)c2cccnc2n1 [Compound 111, 4-[2-(2-Fluoro-phenyl)-[1,8]naphthyridin-4-yl]-[1,7]naphthyridine]	< 1000	> 10000
CCN(CC)CCOc1ccc(-c2cc(-c3cc(Cl)ccc3F)nc3ncccc23)c2ccncc12 [Compound 86, (2-{5-[2-(5-Chloro-2-fluoro-phenyl)-[1,8]naphthyridin-4-yl]-isoquinolin-8-yloxy}-ethyl)-diethyl-amine]	< 1000	< 1000
Cn1cc(-c2ccc(-c3cc(-c4ccccc4F)nc4ncccc34)c3ccncc23)cn1 [Compound 65, 2-(2-Fluoro-phenyl)-4-[8-(1-methyl-1H-pyrazol-4-yl)-isoquinolin-5-yl]-[1,8]naphthyridine]	< 1000	< 1000
Cn1cc(-c2cc(-c3cc(Cl)ccc3F)nc3ncccc23)c2ccncc2c1=O [Compound 74, 4-[2-(5-Chloro-2-fluoro-phenyl)-[1,8]naphthyridin-4-yl]-2-methyl-2H-[2,7]naphthyridin-1-one]	< 1000	< 1000
COc1nnc(-c2cc(-c3ccccc3F)nc3ncccc23)c2ccncc12 [Compound 32, 1-[2-(2-Fluoro-phenyl)-[1,8]naphthyridin-4-yl]-4-methoxy-pyrido[3,4-d]pyridazine]	< 1000	> 10000
Fc1ccccc1-c1cc(-c2nccc3cnccc23)c2cccnc2n1 [Compound 23, 2-(2-Fluoro-phenyl)-4-[2,6]naphthyridin-1-yl-[1,8]naphthyridine]	1000 to 10000	1000 to 10000
O=c1c2cnccc2c(-c2cc(-c3cc(F)ccc3F)nc3ncccc23)cn1CCO [Compound 72, 4-[2-(2,5-Difluoro-phenyl)-[1,8]naphthyridin-4-yl]-2-(2-hydroxy-ethyl)-2H-[2,7]naphthyridin-1-one]	< 1000	< 1000

Further lines, results first:

IC50 [1] [nM]	IC50 [2] [nM]	SMILES
< 1000	< 1000	CCN(CC)CCOc1ncc(-c2cc(-c3cc(Cl)ccc3F)nc3ncccc23)c2ccncc12 [Compound 98, (2-{4-[2-(5-Chloro-2-fluoro-phenyl)-[1,8]naphthyridin-4-yl]-[2,7]naphthyridin-1-yloxy}-ethyl)-diethyl-amine]
< 1000	< 1000	Nc1nccc2c(-c3cc(-c4cc(Cl)ccc4F)nc4ncccc34)cccc12 [Compound 4, 5-[2-(5-Chloro-2-fluoro-phenyl)-[1,8]naphthyridin-4-yl]-isoquinolin-1-ylamine]
< 1000	< 1000	CN(C)CCOc1ccc(-c2cc(-c3cc(Cl)ccc3F)nc3ncccc23)c2ccncc12 [Compound 82, (2-{5-[2-(5-Chloro-2-fluoro-phenyl)-[1,8]naphthyridin-4-yl]-isoquinolin-8-yloxy}-ethyl)-dimethyl-amine]
< 1000	< 1000	COc1ccc(-c2cc(-c3ccccc3F)nc3ncccc23)c2ccncc12 [Compound 17, 2-(2-Fluoro-phenyl)-4-(8-methoxy-isoquinolin-5-yl)-[1,8]naphthyridine]
< 1000	< 1000	Nc1nccc2c(-c3cc(-c4cc(Cl)ccc4F)nc4ncccc34)coc12 [Compound 13, 3-[2-(5-Chloro-2-fluoro-phenyl)-[1,8]naphthyridin-4-yl]-furo[2,3-c]pyridin-7-ylamine]

From patent US8791113B2, “2,4-diaryl-substituted [1,8] naphthyridines as kinase inhibitors for use against cancer” (Merck Patent GmbH, priority 2010, dated 2014)
